We go through 39 compounds from patent publication US11518760B2 (Liverpool School of Tropical Medicine, priority 2017, dated 2022).

This assay relates to C6/36 Aedes albopictus cell line infected with Wolbachia pipientis (Wolbachia strain wAlbB). Put plainly: In vitro insect cell line assay (anti-Wolbachia screen, SYTO 11 high content imaging). The assay is classed as cell-based. Particulars: read-out: In vitro anti-Wolbachia activity. The gist of the method: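 Wolbachia wAlbB-infected C6/36 Aedes albopictus cells were exposed to compounds at a final 5 μM for 7 days at 26 °C, with DMSO-medium wells as untreated controls. Cells were then stained with SYTO 11 for 15 min, imaged by high-content microscopy and scored by texture analysis.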

Setting [1] is: 168 h, C6/36 Aedes albopictus cells infected with Wolbachia pipientis wAlbB, 7 days incubation, SYTO 11 imaging.

SMILES strings stand for the structures. pEC50: −log10 of the molar value. Read-outs that look alike come from different tables or passages of the source. Where only a bound is given, the exact number is not on record here.

For `CC(C)Nc1nc(NCc2ccc(C#N)cc2)c2ccccc2n1` [Example 120, N^4-(4-cyanobenzyl)-N^2-isopropylquinazoline-2,4-diamine], the pEC50 under setting [1] is 6.00 to 7.00.

In the case of `Cc1ccc(Nc2nc(NC(C)C)nc3ccsc23)c(C)c1` [Example 32, N^4-(2,4-dimethylphenyl)-N^2-isopropylthieno[3,2-d]pyrimidine-2,4-diamine], the pEC50 under setting [1] is 4.00 to 6.00.

As for `FC(F)(F)c1ncccc1CNc1nc(N2CCOC3(CCCC3)C2)nc2ncccc12` [Example 272, 2-(6-oxa-9-azaspiro[4.5]decan-9-yl)-N-((2-(trifluoromethyl)pyridin-3-yl)methyl)pyrido[2,3-d]pyrimidin-4-amine], under setting [1], the pEC50 was 9.00 to 11.00.

Turning to `FC(F)(F)c1ncccc1CNc1nc(N2CC3CC2CO3)nc2ncccc12` (stereo not drawn) [Example 255, 2-(2-oxa-5-azabicyclo[2.2.1]heptan-5-yl)-N-((2-(trifluoromethyl)pyridin-3-yl)methyl)pyrido[2,3-d]pyrimidin-4-amine], the pEC50 under setting [1] is 8.00 to 9.00.

With `Fc1ccc(CNc2ncnc3ccccc23)c(C(F)(F)F)c1` [Example 72, N-(4-fluoro-2-(trifluoromethyl)benzyl)quinazolin-4-amine], the pEC50 under setting [1] is 7.00 to 8.00.

As to `FC(F)C1CN(c2nc(NCc3ccccc3C(F)(F)F)c3cccnc3n2)CCO1` (stereo not drawn) [Example 284, 2-(2-(difluoromethyl)morpholino)-N-(2-(trifluoromethyl)benzyl)pyrido[2,3-d]pyrimidin-4-amine], the pEC50 under setting [1] was over 11.00.

Turning to `CC(C)N(C)c1nc(NCc2ccccc2Cl)c2sccc2n1` [Example 33, N^4-(2-chlorobenzyl)-N^2-isopropyl-N^2-methylthieno[3,2-d]pyrimidine-2,4-diamine], the pEC50 under setting [1] is 6.00 to 7.00.

As for `Cc1nc(N(C)C(C)c2ccccc2C(F)(F)F)c2sc(C(C)(C)O)cc2n1` (stereo not drawn) [Example 70, 2-(2-methyl-4-(methyl(1-(2-(trifluoromethyl)phenyl)ethyl)amino)thieno[3,2-d]pyrimidin-6-yl)propan-2-ol], the pEC50 under setting [1] is 4.00 to 6.00.

Regarding `COc1ccc(CNc2nc(NC(C)C)nc3ccccc23)cc1OC` [Example 140, N^4-(3,4-dimethoxybenzyl)-N^2-isopropylquinazoline-2,4-diamine], the pEC50 under setting [1] is 6.00 to 7.00.

Regarding `FC(F)(F)c1ncccc1CNc1nc(N2CCOCC2C2CC2)nc2ncccc12` (stereo not drawn) [Example 253, 2-(3-cyclopropylmorpholino)-N-((2-(trifluoromethyl)pyridin-3-yl)methyl)pyrido[2,3-d]pyrimidin-4-amine], the pEC50 under setting [1] was 8.00 to 9.00.

In the case of `FC1(F)CN(c2nc(NCc3cccnc3C(F)(F)F)c3cccnc3n2)C1` [Example 201, 2-(3,3-difluoroazetidin-1-yl)-N-((2-(trifluoromethyl)pyridin-3-yl)methyl)pyrido[2,3-d]pyrimidin-4-amine], the pEC50 under setting [1] was 7.00 to 8.00.

As for `CC(C)Nc1nc(Nc2ccccc2C(F)(F)F)c2sccc2n1` [Example 59, N^2-isopropyl-N^4-(2-(trifluoromethyl)phenyl)thieno[3,2-d]pyrimidin-2,4-amine], under setting [1], the pEC50 is 6.00 to 7.00.

For the compound `FC(F)(F)c1ccccc1CNc1nc(N2CCOCC23CCCC3)nc2ncccc12` [Example 286, 2-(9-oxa-6-azaspiro[4.5]decan-6-yl)-N-(2-(trifluoromethyl)benzyl)pyrido[2,3-d]pyrimidin-4-amine], the pEC50 under setting [1] was 6.00 to 7.00.

With `CC(C)[S+]([O-])c1nc(NCc2cccnc2C(F)(F)F)c2cccnc2n1` (stereo not drawn) [Example 178, 2-(isopropylsulfinyl)-N-((2-(trifluoromethyl)pyridin-3-yl)methyl)pyrido[2,3-d]pyrimidin-4-amine], the pEC50 under setting [1] was 4.00 to 6.00.

With `CC1(C#N)CCN(c2nc(NCc3ccccc3C(F)(F)F)c3cccnc3n2)CC1` [Example 261, (2-(trifluoromethyl)pyridin-3-yl)metha 4-methyl-1-(4-((2-(trifluoromethyl)benzyl)amino)pyrido[2,3-d]pyrimidin-2-yl)piperidine-4-carbonitrile], the pEC50 under setting [1] is over 11.00.

On to `CC(C)Nc1nc(NCc2ccc(C(F)(F)F)nc2)c2sccc2n1` [Example 119, N^2-isopropyl-N^4-((6-(trifluoromethyl)pyridin-3-yl)methyl)thieno[3,2-d]pyrimidine-2,4-diamine], for which the pEC50 under setting [1] is 6.00 to 7.00.

Turning to `CC(C)Nc1nc(NCc2ccc(S(C)(=O)=O)cc2)c2ncccc2n1` [Example 123, N^2-isopropyl-N^4-(4-(methylsulfonyl)benzyl)pyrido[3,2-d]pyrimidine-2,4-diamine], the pEC50 under setting [1] is 4.00 to 6.00.

For `FC(F)(F)c1ccccc1CNc1nc(NCCN2CCCC2)nc2ccsc12` [Example 91, N^2-(2-(pyrrolidin-1-yl)ethyl)-N^4-(2-(trifluoromethyl)benzyl)thieno[3,2-d]pyrimidine-2,4-diamine], the pEC50 under setting [1] was 4.00 to 6.00.

Regarding `CC(C)Nc1nc(NCc2c(Cl)cccc2Cl)c2sccc2n1` [Example 27, N^4-(2,6-dichlorobenzyl)-N-isopropylthieno[3,2-d]pyrimidine-2,4-diamine], the pEC50 under setting [1] was 4.00 to 6.00.

As to `Cc1nc(NCc2ccc(F)cc2C(F)(F)F)c2ccccc2n1` [Example 73, N-(4-fluoro-2-(trifluoromethyl)benzyl)-2-methylquinazolin-4-amine], the pEC50 under setting [1] is 6.00 to 7.00.

On to `CC(C)N(C)c1nc(NCc2cccnc2C(F)(F)F)c2cccnc2n1` [Example 162, N^2-isopropyl-N^2-methyl-N^4-((2-(trifluoromethyl)pyridin-3-yl)methyl)pyrido[2,3-d]pyrimidine-2,4-diamine], for which the pEC50 under setting [1] is 9.00 to 11.00.

For the compound `FC1(F)CCN(c2nc(NCc3cccnc3C(F)(F)F)c3cccnc3n2)CC1` [Example 197, 2-(4,4-difluoropiperidin-1-yl)-N-((2-(trifluoromethyl)pyridin-3-yl)methyl)pyrido[2,3-d]pyrimidin-4-amine], the pEC50 under setting [1] was 8.00 to 9.00.

Take `CC(C)Nc1nc(NC(C)c2ccccc2C(F)(F)F)c2sccc2n1` (stereo not drawn) [Example 53, N^2-isopropyl-N^4-(1-(2-(trifluoromethyl)phenyl)ethyl)thieno[3,2-d]pyrimidine-2,4-diamine]: the pEC50 under setting [1] was 8.00 to 9.00.

Take `CC1CN(c2nc(NCc3ccccc3C(F)(F)F)c3cccnc3n2)C[C@H](C)O1` (stereo partly drawn) [Example 268, 2-((6S)-2,6-dimethylmorpholino)-N-(2-(trifluoromethyl)benzyl)pyrido[2,3-d]pyrimidin-4-amine]: the pEC50 under setting [1] was 7.00 to 8.00.

For the compound `FC(F)(F)c1ccccc1CNc1nc(Cl)nc2ccccc12` [Example 57, 2-chloro-N-(2-(trifluoromethyl)benzyl)quinazolin-4-amine], the pEC50 under setting [1] is 7.00 to 8.00.

On to `CNc1nc(NCc2ccccc2C(F)(F)F)c2cccnc2n1` [Example 143, N^2-methyl-N^4-(2-(trifluoromethyl)benzyl)pyrido[2,3-d]pyrimidine-2,4-diamine], for which, under setting [1], the pEC50 is 7.00 to 8.00.

`FC(F)O[C@H]1CCN(c2nc(NCc3cccnc3C(F)(F)F)c3cccnc3n2)C1` [Example 281, (S)-2-(3-(difluoromethoxy)pyrrolidin-1-yl)-N-((2-(trifluoromethyl)pyridin-3-yl)methyl)pyrido[2,3-d]pyrimidin-4-amine]: the pEC50 under setting [1] was 9.00 to 11.00.

In the case of `CC(C)Nc1nc(NCc2ccc(C(F)(F)F)cc2)c2ccccc2n1` [Example 111, N^2-isopropyl-N^4-(4-(trifluoromethyl)benzyl)quinazoline-2,4-diamine], under setting [1], the pEC50 was 4.00 to 6.00.

Consider `C[C@H]1COCCN1c1nc(N2CCC2c2cccnc2C(F)(F)F)c2cccnc2n1` (stereo partly drawn) [Example 289, (3S)-3-methyl-4-(4-(2-(2-(trifluoromethyl)pyridin-3-yl)azetidin-1-yl)pyrido[2,3-d]pyrimidin-2-yl)morpholine], for which the pEC50 under setting [1] is 9.00 to 11.00.

`CC(C)Nc1nc(NCc2ccccc2S(C)(=O)=O)c2ncccc2n1` [Example 122, N^2-isopropyl-N^4-(2-(methylsulfonyl)benzyl)pyrido[3,2-d]pyrimidine-2,4-diamine]: the pEC50 under setting [1] is 4.00 to 6.00.

In the case of `C[C@@H]1COCCN1c1nc(N2CCC2c2ccccc2C(F)(F)F)c2cccnc2n1` (stereo partly drawn) [Example 290, (3R)-3-methyl-4-(4-(2-(2-(trifluoromethyl)phenyl)azetidin-1-yl)pyrido[2,3-d]pyrimidin-2-yl)morpholine], the pEC50 under setting [1] was 9.00 to 11.00.

Consider `CC1(C)CCN(c2nc(NCc3ccccc3C(F)(F)F)c3cccnc3n2)CC1` [Example 244, 2-(4,4-dimethylpiperidin-1-yl)-N-(2-(trifluoromethyl)benzyl)pyndo[2,3-d]pyrimidin-4-amine], for which the pEC50 under setting [1] was 8.00 to 9.00.

For `CC(C)Nc1nc(NCc2ccc(C#N)cc2)c2cccnc2n1` [Example 126, N^4-(4-cyanobenzyl)-N^2-isopropylpyrido[2,3-d]pyrimidine-2,4-diamine], the pEC50 under setting [1] was 6.00 to 7.00.

As to `CN(C)c1nc(NCc2c(F)cccc2C(F)(F)F)c2cccnc2n1` [Example 169, N^4-(2-fluoro-6-(trifluoromethyl)benzyl)-N^2,N^2-dimethylpyrido[2,3-d]pyrimidine-2,4-diamine], the pEC50 under setting [1] was 6.00 to 7.00.

In the case of `FC(F)(F)c1ncccc1C1CCN1c1nc(N2CC(C(F)(F)F)C2)nc2ncccc12` (stereo not drawn) [Example 221, 2-(3-(trifluoromethyl)azetidin-1-yl)-4-(2-(2-(trifluoromethyl)pyridin-3-yl)azetidin-1-yl)pyrido[2,3-d]pyrimidine], the pEC50 under setting [1] is 8.00 to 9.00.

In the case of `O=C(Nc1cccc(F)c1)Nc1nc(NCc2cccnc2C(F)(F)F)c2cccnc2n1` [Example 205, 1-(3-fluorophenyl)-3-(4-(((2-(trifluoromethyl)pyridin-3-yl)methyl)amino)pyrido[2,3-d]pyrimidin-2-yl)urea], under setting [1], the pEC50 was 7.00 to 8.00.

As for `[2H]c1cc2nc(C)nc(N(C)C(C)c3ccccc3C(F)(F)F)c2s1` (stereo not drawn) [Example 71], under setting [1], the pEC50 was 7.00 to 8.00.

On to `CC(Nc1ncnc2cc(-c3ccccc3)sc12)c1ccccc1C(F)(F)F` (stereo not drawn) [Example 98, 6-phenyl-N-(1-(2-(trifluoromethyl)phenyl)ethyl)thieno[3,2-d]pyrimidin-4-amine], for which the pEC50 under setting [1] was 4.00 to 6.00.

As for `Cc1cc2ncnc(N(C)C(C)c3ccccc3C(F)(F)F)c2s1` (stereo not drawn) [Example 1], the pEC50 (C6/36, 168 h) is 4.00 to 6.00.
